# In US20210318318A1, “Kinase Activity In Tumors” (Institute For Cancer Research d/b/a The Research Institute …, priority 2018, published 2021):
# What was measured:
# [1] = molecular target: T1, ROCK2 (Homo sapiens, UniProt O75116); experiment: MIB/MS kinome profiling of inhibitor-treated OVSAHO cells; assay type: cell-based; conditions: 2 μM, 4 hours
# T1 construct: endogenous in cells; host or cells: OVSAHO
# Procedure: (§1) OVSAHO cells were treated with 2 μM of inhibitor for 4 hours and analyzed by MIB/MS. Scatterplot depicts difference in kinase MIB-binding of drug treated relative to control DMSO as determined by Students T-test.
# (§2) MIB-based kinome profiling was performed on several of these molecules in HGSOC cells to determine kinome-wide inhibition profiles.
# Experiments using MIB/MS were performed as previously described (Duncan et al., Cell, 2012, 149, 307-321; and Kurimchak et al., Cell Reports, 2016, 16, 1273-1286). Briefly, cells or tumors were lysed on ice in buffer containing 50 mM HEPES (pH 7.5), 0.5% Triton X-100, 150 mM NaCl, 1 mM EDTA, 1 mM EGTA, 10 mM sodium fluoride, 2.5 mM sodium orthovanadate, 1× protease inhibitor cocktail (Roche), and 1% each of phosphatase inhibitor cocktails 2 and 3 (Sigma). Particulate was removed by centrifugation of lysates at 13,000 rpm for 10 minutes at 4° C. and filtration through 0.2 μm syringe filters. Protein concentrations were determined by BCA analysis (Thermo). To compare kinome signatures within and across such large sample sizes, a super-SILAC method was designed (Neubert et al., Nat. Meth., 2010, 7, 361-362) consisting of a cocktail of cancer cell lines that encompasses the activity of the “cancer kinome” to be used as a control for individual samples. […] An equal amount of the HKS was added to the non-labeled sample (cell, tumor or normal tissue) providing a quantitative strategy to compare kinome activity/levels across samples, amongst treatments and, importantly, across time. […]
# (§3) Proteolytic peptides were resuspended in 0.1% formic acid and separated with a Thermo RSLC Ultimate 3000 on a Thermo Easy-Spray C18 PepMap 75 μm×50 cm C-18 2 μm column with a 240 minute gradient of 4-25% acetonitrile with 0.1% formic acid at 300 nL/min and 50° C. Eluted peptides were analyzed by a Thermo Q Exactive plus mass spectrometer utilizing a top 15 methodology in which the 15 most intense peptide precursor ions were subjected to fragmentation.
# [2] = tested on: FAK1, MLC and Paxillin phosphorylation; FAK1 and CHEK1 protein levels; experiment: Western blot of signaling in inhibitor-treated HGSOC cells; assay type: cell-based, human; conditions: 48 hours
# Procedure: COV362 cells were treated with 0.5, 1 or 3 μM of A-674563 or SB-772077 for 48 hours and signaling monitored by western blot.
# Samples were harvested in MIB lysis buffer, subjected to SDS-PAGE […] and transferred to PVDF membranes before western blotting with primary antibodies. For pMYPT and pMLC blots, cells were harvested in a buffer containing 1% (w/v) SDS, 50 mM Tris pH 7.5 supplemented with protease and phosphatase inhibitors buffer and were passed through QIAshredder columns (Qiagen, 79654), (Unbekandt et al., Cell Commun. Signal., 2014, 12, 54). For the list of primary antibodies used, see Table 4. Secondary HRP-anti-rabbit and HRP-anti-mouse were obtained from ThermoFisher Scientific. SuperSignal West Pico and Femto Chemiluminescent Substrates (Thermo) were used to visualize blots.
# [3] = tested on: COV362 cells; experiment: Migration assay (xCELLigence RTCA); assay type: cell-based, human; conditions: 1 μM, 24 hour period
# Procedure: COV362 cells were treated with 1 μM of A-674563 or DMSO and migration monitored over a 24 hour period using the xCELLigence Real-Time Cell Analyzer (RTCA).
# Cell migration assays were performed using the xCELLigence RTCA DP Instrument (ACEA Biosciences) in a CIM-Plate 16 (ACEA Biosciences). Complete medium was added to the lower chambers of the CIM-Plate (or serum free medium for negative control). In the upper chambers, 30 μL serum free medium was added to each well and the CIM-Plate was placed in the instrument to equilibrate for 1 hr at 37° C. Following this equilibration step, a background measurement was taken. The CIM-Plate was removed from the instrument, and COV362 cells were added to the upper chambers at 50,000 cells per well in serum free medium. The CIM-Plate was left at 25° C. for 30 minutes to allow the cells to settle at the bottom of the well. The plate was then returned to the instrument, and cell index reads were taken once every 15 minutes for 24 hours. For the siRNA experiment, the cells were transfected 24 hours prior to the start of the assay. For the A-674563 experiment, cells were pretreated with 1 μM inhibitor or DMSO 24 hours prior, and both upper and lower chambers contained 1 μM inhibitor or DMSO.
# [4] = molecular target: MRCKA (Homo sapiens, UniProt Q5VT25); experiment: MIB/MS kinome profiling of inhibitor-treated OVSAHO cells; assay type: cell-based; set-up: endogenous in cells; host or cells: OVSAHO; conditions: 2 μM, 4 hour treatment
# Chain of MRCKA (Q5VT25 whole entry): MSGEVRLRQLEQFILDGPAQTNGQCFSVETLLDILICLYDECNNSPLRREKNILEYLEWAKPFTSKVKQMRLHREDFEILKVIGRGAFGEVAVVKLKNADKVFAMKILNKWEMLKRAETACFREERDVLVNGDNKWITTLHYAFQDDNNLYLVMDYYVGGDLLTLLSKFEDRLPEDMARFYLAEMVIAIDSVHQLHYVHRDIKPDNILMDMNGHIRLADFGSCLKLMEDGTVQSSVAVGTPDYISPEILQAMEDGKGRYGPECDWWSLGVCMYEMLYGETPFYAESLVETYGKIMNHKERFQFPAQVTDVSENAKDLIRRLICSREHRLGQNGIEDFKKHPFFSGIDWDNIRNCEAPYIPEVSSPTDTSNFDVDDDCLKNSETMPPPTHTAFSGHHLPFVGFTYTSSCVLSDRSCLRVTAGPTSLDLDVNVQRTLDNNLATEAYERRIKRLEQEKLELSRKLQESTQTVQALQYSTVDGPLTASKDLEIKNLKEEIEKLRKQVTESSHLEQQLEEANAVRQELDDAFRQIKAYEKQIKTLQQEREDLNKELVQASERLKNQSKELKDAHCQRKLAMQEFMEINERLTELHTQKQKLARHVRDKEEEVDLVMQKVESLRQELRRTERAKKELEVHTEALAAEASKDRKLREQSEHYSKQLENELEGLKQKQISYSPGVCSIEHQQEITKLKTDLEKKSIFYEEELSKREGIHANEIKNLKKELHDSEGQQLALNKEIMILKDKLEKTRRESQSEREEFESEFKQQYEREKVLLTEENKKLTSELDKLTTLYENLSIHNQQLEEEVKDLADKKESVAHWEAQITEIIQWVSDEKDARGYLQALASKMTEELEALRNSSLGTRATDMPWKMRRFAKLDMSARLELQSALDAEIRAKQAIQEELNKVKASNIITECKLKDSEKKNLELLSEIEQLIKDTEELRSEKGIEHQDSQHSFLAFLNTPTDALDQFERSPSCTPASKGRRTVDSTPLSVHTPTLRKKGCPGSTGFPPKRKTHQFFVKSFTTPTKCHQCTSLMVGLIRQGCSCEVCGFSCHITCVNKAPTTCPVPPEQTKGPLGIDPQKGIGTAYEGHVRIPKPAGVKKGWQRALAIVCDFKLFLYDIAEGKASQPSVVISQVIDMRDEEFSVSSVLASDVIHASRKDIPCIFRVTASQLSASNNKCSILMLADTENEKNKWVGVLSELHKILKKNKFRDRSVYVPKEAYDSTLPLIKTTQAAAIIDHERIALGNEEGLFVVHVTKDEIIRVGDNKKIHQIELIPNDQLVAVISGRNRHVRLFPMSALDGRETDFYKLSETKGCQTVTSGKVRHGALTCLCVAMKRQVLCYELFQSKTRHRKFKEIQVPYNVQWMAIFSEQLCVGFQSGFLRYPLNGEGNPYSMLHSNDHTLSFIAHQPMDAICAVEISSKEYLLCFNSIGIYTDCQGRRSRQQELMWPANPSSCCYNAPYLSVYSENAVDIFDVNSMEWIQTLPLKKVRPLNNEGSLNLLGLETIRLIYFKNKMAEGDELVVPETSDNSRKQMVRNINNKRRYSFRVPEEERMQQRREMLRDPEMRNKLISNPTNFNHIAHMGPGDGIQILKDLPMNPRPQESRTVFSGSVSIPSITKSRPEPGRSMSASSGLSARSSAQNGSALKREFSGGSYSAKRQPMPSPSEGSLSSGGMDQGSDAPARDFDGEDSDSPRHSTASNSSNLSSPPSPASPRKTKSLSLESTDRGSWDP
# Procedure: OVSAHO cells were treated with inhibitors at a dose of 2 μM for 4 hours and kinase inhibition profiles determined by MIB/MS. Bar graph depicts % of kinase bound to MIBs relative to DMSO control as determined by label free quantitation.
# as §1, §2
# Experiments using MIB/MS were performed as previously described (Duncan et al., Cell, 2012, 149, 307-321; and Kurimchak et al., Cell Reports, 2016, 16, 1273-1286). Briefly, cells or tumors were lysed on ice in buffer containing 50 mM HEPES (pH 7.5), 0.5% Triton X-100, 150 mM NaCl, 1 mM EDTA, 1 mM EGTA, 10 mM sodium fluoride, 2.5 mM sodium orthovanadate, 1× protease inhibitor cocktail (Roche), and 1% each of phosphatase inhibitor cocktails 2 and 3 (Sigma). Particulate was removed by centrifugation of lysates at 13,000 rpm for 10 minutes at 4° C. and filtration through 0.2 μm syringe filters. Protein concentrations were determined by BCA analysis (Thermo). To compare kinome signatures within and across such large sample sizes, a super-SILAC method was designed (Neubert et al., Nat. Meth., 2010, 7, 361-362) consisting of a cocktail of cancer cell lines that encompasses the activity of the “cancer kinome” to be used as a control for individual samples. Five cancer cell lines were selected from the NCI-60 panel (UACC257, MOLT4, COL0205, ACHN and PC3) that differed in their origin, gene expression patterns and mutation status. The cancer cell lines were labeled using SILAC and mixed equally providing a diverse SILAC ([^13C6,^15N4] arginine (Arg^10) and […] (Lys^8)) heavy kinome reference standard (HKS) to be used repeatedly in kinome profiling assays. An equal amount of the HKS was added to the non-labeled sample (cell, tumor or normal tissue) providing a quantitative strategy to compare kinome activity/levels across samples, amongst treatments and, importantly, across time. […]
# as §3
# T1 sequence (O75116 whole entry): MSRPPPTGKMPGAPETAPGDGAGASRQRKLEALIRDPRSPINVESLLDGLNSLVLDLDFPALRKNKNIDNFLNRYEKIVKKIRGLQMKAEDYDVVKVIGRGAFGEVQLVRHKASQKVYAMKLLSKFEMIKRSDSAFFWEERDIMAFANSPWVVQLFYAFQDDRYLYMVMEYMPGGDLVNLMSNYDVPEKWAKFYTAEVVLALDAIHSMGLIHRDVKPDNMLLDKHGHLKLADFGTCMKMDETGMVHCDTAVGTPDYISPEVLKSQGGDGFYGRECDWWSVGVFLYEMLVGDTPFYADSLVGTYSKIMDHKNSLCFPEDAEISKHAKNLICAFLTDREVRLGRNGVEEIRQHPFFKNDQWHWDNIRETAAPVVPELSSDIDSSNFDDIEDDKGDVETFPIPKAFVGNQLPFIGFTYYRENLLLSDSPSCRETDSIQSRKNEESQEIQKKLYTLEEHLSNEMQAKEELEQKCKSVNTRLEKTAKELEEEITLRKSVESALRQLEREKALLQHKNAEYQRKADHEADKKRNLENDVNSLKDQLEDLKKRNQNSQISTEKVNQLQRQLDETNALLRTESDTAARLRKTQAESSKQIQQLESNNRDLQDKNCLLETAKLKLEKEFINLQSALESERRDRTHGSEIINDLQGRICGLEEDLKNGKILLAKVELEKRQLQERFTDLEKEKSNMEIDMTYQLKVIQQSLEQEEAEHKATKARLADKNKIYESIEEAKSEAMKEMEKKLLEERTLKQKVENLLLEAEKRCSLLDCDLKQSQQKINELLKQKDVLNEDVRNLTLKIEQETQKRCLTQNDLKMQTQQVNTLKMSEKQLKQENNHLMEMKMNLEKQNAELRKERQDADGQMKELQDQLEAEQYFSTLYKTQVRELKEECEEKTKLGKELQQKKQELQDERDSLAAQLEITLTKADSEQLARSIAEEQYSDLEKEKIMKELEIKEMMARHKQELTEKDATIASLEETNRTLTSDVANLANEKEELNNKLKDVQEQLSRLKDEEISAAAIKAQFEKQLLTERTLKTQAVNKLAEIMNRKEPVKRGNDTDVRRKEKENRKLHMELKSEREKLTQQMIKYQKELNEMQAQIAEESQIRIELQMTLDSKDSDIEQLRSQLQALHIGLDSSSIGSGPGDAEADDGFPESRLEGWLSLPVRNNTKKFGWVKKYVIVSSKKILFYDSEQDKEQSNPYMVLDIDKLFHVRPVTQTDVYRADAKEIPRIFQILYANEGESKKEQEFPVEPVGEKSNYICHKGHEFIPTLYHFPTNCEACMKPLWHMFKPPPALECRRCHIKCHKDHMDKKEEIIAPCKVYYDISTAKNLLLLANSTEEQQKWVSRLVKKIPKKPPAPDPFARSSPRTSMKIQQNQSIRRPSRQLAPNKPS
compound,measurement,setting,value
Cc1[nH]nc2ccc(-c3cncc(OC[C@@H](N)Cc4ccccc4)c3)cc12 [A-674563],MIB-binding of ROCK2,[1],did not influence
same,FAK1 and CHEK1 protein levels,"[2]; HGSOC (COV362) cells, 0.5, 1 or 3 μM",uniquely reduced
same,"FAK1, MLC and Paxillin phosphorylation","[2]; HGSOC (COV362) cells, increasing doses 0.5, 1 or 3 μM",inhibited
same,cell migration,[3],reduced cell migration
same,MIB-binding of MRCKA relative to DMSO,[4],greatest reduction
